Experiments:
Rat NSCs = experiment: NG2 immunocytochemistry cell count: differentiation of NSCs to NG2 positive cells (OPCs); format: cell-based; conditions: NSC neurospheres, mean±S.D.
Protocol: (§1) Rat NSCs isolation and culture were performed as described by Weiss et al (Weiss et al., 1996). Briefly, the cortex of 1- to 2-day-old newborn SD rats were removed and placed into sterile chilled Hank's Balanced Salt Solution. After the meninges were carefully removed, tissues were cut into tiny pieces and gently triturated with a Pasteur pipette at least 10-15 times. The suspended tissue was centrifuged at 500 g for 5 min and the pellets were re-suspended in a proliferation medium (DMEM/F12 nutrient (1:1) with additional 2% B27 (Invitrogen Corporation, Carlsbad, Calif.) supplement and 20 ng/mL bFGF (PeproTech, Rocky Hill, N.J.)). The cells were plated at a density of 50 cells/mL in non-coated […] flasks. Every 4 days, bFGF was added along with a partial medium change. After 7 days in vitro, cells formed floating neurospheres. To subculture NSCs, the neurospheres were centrifuged at 600 g for 5 min when the diameters of neurospheres reached a size of approximately 100-200 μm; they were then re-suspended in fresh medium and mechanically dissociated into single cells. Single cells subsequently were seeded into proliferation medium at a density of 10 cells/mL per flask. This procedure produced a second generation of neurospheres, and additional generations of NSCs were produced using this same procedure.
Neurospheres were plated into 12-well plates on poly-D-lysine coated 35 mm dishes at a density of 10-20 spheres per dish in 1.5 mL medium. 1 hour after plating, compounds were added at a final concentration 100 μM unless otherwise indicated. After 5 days, cells were examined with Phase contrast image or immunocytochemistry.
Identification of the different kinds of cells was performed using indirect immunocytochemistry. Cells on dishes were fixed with 4% paraformaldehyde at room temperature for 20 min and washed three times in succession with 0.01 M PBS for 5 min each time. Cells were then treated with 0.3% Triton 100 containing 10% normal goat serum at room temperature for 30 min (Xu et al., 2006). Cells were then incubated with primary antibodies at 4° C. for 12-16 h and washed three times with 0.01 M phosphate buffered saline (PBS) for 5 min each time. FITC-conjugated secondary antibodies were added to the cells, and the cells were incubated at 37° C. for 40 min. After three 5 min PBS washes, Hochest 33258 nuclear stain was added at room temperature for 10 min, followed by two more 5 min PBS rinses. The dishes were examined by a fluorescence microscopy. The primary antibodies included anti-GFAP (1:200; rabbit; Promega), anti-nestin (1:500; Mouse; Chemicon); anti-NG2(1:200; Mouse; Chemicon), anti-MBP (1:50; Mouse; Chemicon), anti-04 (1:100; Mouse; Chemicon), anti-RIP (1:100; Mouse; Chemicon), anti-olig2 (1:100; rabbit; Abcam). The secondary antibodies were FITC-labeled antibodies to rabbit IgG (1:200) and TRITIC-labeled antibodies to mouse IgG (1:200). Immunostained preparations were examined with an IX70 Olympus microscope equipped for phase contrast and epi-fluorescence. Light from a 75 W xenon arc lamp (AH2-RX, Olympus) passed through filter sets (Chroma) to generate excited light for Hochest 33258, FITC and TRITIC stains. All image acquisitions were finished with computer-controlled CCD (Micromax 5 MHz system, Roper Princeton Instruments) and MetaMorph Imaging System version 3.6 (Universal Imaging Corporation). To determine the number of cells expressing a particular antigen, 100 fields per sample were examined and totaled. Observers without knowledge of the treatment condition counted the numbers of positive cells for NG2, compared to total numbers of progeny of NSCs determined by counting Hochest 33258 staining cell nuclei. Results are given as mean±S.D. of data for six samples from three independent experiments. Statistical analyses were carried out using Student's t-test with SPSS software (Version 10.1). […]

NSCs = experiment: Primary compound screen of NSCs, phase contrast morphology; format: cell-based, rat; conditions: 100 μM, 5 days, phase contrast microscope
Protocol: as §1, with “procedure. […]” for “procedure.”

Molecule	The ratio of NG2 positive cells of the total cells (%) (Rat NSCs; Dose 1 μM)	The ratio of NG2 positive cells of the total cells (%) (Rat NSCs; Dose 10 μM)	The ratio of NG2 positive cells of the total cells (%) (Rat NSCs; Dose 100 μM)	The ratio of NG2 positive cells of the total cells (%) (Rat NSCs; Dose 1 mM)	The ratio of NG2 positive cells of the total cells (%) (Rat NSCs; Dose 1 μM, listed as daphnoretin)	The ratio of NG2 positive cells of the total cells (%) (Rat NSCs; Dose 10 μM, listed as daphnoretin)	The ratio of NG2 positive cells of the total cells (%) (Rat NSCs; Dose 100 μM, listed as daphnoretin)	The ratio of NG2 positive cells of the total cells (%) (Rat NSCs; Dose 1 mM, listed as daphnoretin)	generation of round bipolar or multipolar morphology cells (probably OPCs) (NSCs)
O=c1ccc2cc(O)c(O)cc2o1 [Aesculetin]	53 ± 2.4	63 ± 2.9	68 ± 2.7	75 ± 1.6	–	–	–	–	–
COc1cc(O)c2c(=O)cc(-c3ccc(O)cc3)oc2c1 [Genkwanin]	23 ± 2.3	1	1	1	–	–	–	–	–
COc1cc2cc(Oc3ccc4ccc(=O)oc4c3)c(=O)oc2cc1OC [Isodaphnoretin]	15.6 ± 1.8	1	1	1	–	–	–	–	–
COc1cc2ccc(=O)oc2cc1O [Scopoletin]	62 ± 5.6	63 ± 6.3	70 ± 6.9	68 ± 6.7	–	–	–	–	–
O=c1ccc2cc(O[C@@H]3O[C@H](CO)[C@@H](O)[C@H](O)[C@H]3O)c(O)cc2o1 [Esculetin-6-β-D-glucopyranoside]	67 ± 4.6	72 ± 3.5	70 ± 3.9	85 ± 5.2	–	–	–	–	–
O=c1ccc2ccc(Oc3cc4ccc(O)cc4oc3=O)cc2o1 [Edgeworin]	60 ± 2.6	63 ± 2.9	68 ± 3.5	81 ± 3.1	–	–	–	–	–
COc1cc2oc(=O)cc(-c3ccccc3)c2cc1O [Dalbergin]	1	1	1	1	–	–	–	–	–
O=c1ccc2ccc(O)cc2o1 [7-hydroxycoumarin]	68 ± 6.5	76 ± 6.6	89 ± 9.3	92 ± 8.7	–	–	–	–	–
COc1ccc2ccc(=O)oc2c1 [7-methoxy coumarin]	16.7 ± 2.2	1	1	1	–	–	–	–	–
C[C@@H]1O[C@@H](Oc2ccc3ccc(=O)oc3c2-c2c(O)ccc3ccc(=O)oc23)[C@H](O)[C@H](O)[C@H]1O [Edgeworoside C]	1	1	1	1	–	–	–	–	–
COc1cc2cc(Oc3ccc4ccc(=O)oc4c3)c(=O)oc2cc1O [Daphnoretin]	65 ± 5.3	87 ± 7.5	92 ± 8.6	95 ± 6.9	65±5.3	87±7.5	92±8.6	95±6.9	markedly enhance the generation of round bipolar or multipolar morphology cells
COc1cc2cc(Oc3ccc4ccc(=O)oc4c3)c(=O)oc2cc1O[C@@H]1O[C@H](CO)[C@@H](O)[C@H](O)[C@H]1O [Daphnoretin-7-O-β-D-glucopyranoside]	1	1	1	1	–	–	–	–	–
Isopsoralen	21 ± 1.6	1	1	1	–	–	–	–	–
